Legend:
[1] = human, in vivo
Procedure: Clinical Trial—BHV3000-303: Phase 3: Double-Blind, Randomized, Placebo-Controlled, Safety and Efficacy Trial of BHV-3000 (Rimegepant) Orally Discintegrating Tablet (ODT) for the Acute Treatment of Migraine (ClinicalTrials.gov Identifier: NCT03461757) • A phase 3 clinical study was conducted with 1812 participants, as follows.
Study Design • Study Type: Interventional (Clinical Trial) • Actual Enrollment: 1812 participants • Allocation: Randomized • Intervention Model: Parallel Assignment • Masking: Triple (Participant, Care Provider, Investigator) • Primary Purpose: Treatment • Official Title: BHV3000-303: Phase 3, Double-Blind, Randomized, Placebo Controlled, Safety and Efficacy Trial of BHV-3000 (Rimegepant) Orally Disintegrating Tablet (ODT) for the Acute Treatment of Migraine • Actual Study Start Date: Feb. 27, 2018 • Actual Primary Completion Date: Oct. 8, 2018 • Actual Study Completion Date: Oct. 15, 2018

[2] = BHV3000-302 Phase 3 trial: safety and tolerability; type: in vivo, human; conditions: Study 302
Procedure: In a double-blind, randomized, placebo-controlled, multicenter study (Study 302, NCT03237845) adults […] of age with at least a 1-year history of ICHD 3-beta migraine were eligible to participate. Following a 3- to 28-day screening period, subjects were randomized to receive rimegepant 75 mg or matching placebo and instructed to treat a single migraine attack with 1 dose of the blinded study drug (rimegepant or placebo) when headache pain reached moderate or severe intensity. The coprimary endpoints were pain freedom at 2 hours postdose and freedom from the most bothersome symptom (MBS) at 2 hours postdose. Safety assessments included adverse events (AEs), ECGs, vital signs, physical measurements, and routine laboratory tests, including assessment of liver function. Unless stated otherwise, values presented are mean±SD.

patients with migraine = experiment: BHV3000-201: reduction in headache days (migraines) per month, treatment vs observation phase; type: in vivo, human
Source text: (§1) Study Design • Study Type: Interventional (Clinical Trial) • Estimated Enrollment: 2000 participants • Intervention Model: Single Group Assignment • Masking: None (Open Label) • Primary Purpose: Treatment • Official Title: A Multicenter, Open Label Long-Term Safety Study of BHV3000 in the Acute Treatment of Migraine • Actual Study Start Date: Aug. 30, 2017 • Estimated Primary Completion Date: July 2019 • Estimated Study Completion Date: July 2019 In addition to the interim safety analysis, data from subjects was assessed to determine reductions in the number of headache days per month.

[3] = Pooled safety data (AEs, liver function tests) of Studies 301, 302 and 303; type: in vivo, human
[4] = BHV3000-201 open label long-term safety study, interim analysis; type: in vivo, human
Procedure: Clinical Trial—BHV3000-201: Open Label Safety Study in Acute Treatment of Migraine (ClinicalTrials.gov Identifier: NCT 03266588)
A phase 2/3 clinical study is conducted with about 2000 participants, as follows.
The purpose of this study is to evaluate safety and tolerability of BHV3000 (rimegepant).
as §1, with “2019” for “2019 In addition to the interim safety analysis, data from subjects was assessed to determine reductions in the number of headache days per month.”
1. To assess the safety and tolerability of rimegepant (BHV-3000) by measuring the frequency and severity of adverse events and discontinuations due to adverse events [Time Frame: 52 weeks]Number of subjects with treatment-emergent adverse events as assessed through laboratory tests, ECGs, physical exam findings (safety and tolerability)
1. ALT or AST >3×ULN with total bilirubin >2×ULN [Time Frame: 52 weeks]elevated liver function tests
2. hepatic related adverse events and hepatic related adverse events that lead to discontinuation [Time Frame: 52 weeks]adverse events related to liver
Patients were allowed to treat migraine attacks of all severities (mild to severe) up to once daily for a full year. The initial results for hepatic safety and tolerability of rimegepant 75 mg in study participants is based upon review of both adverse events and regularly scheduled liver function tests. Interim hepatic data were reviewed by an external and independent panel of liver experts. […] In the aggregate, it was noted that compared to migraine trials with drugs other than rimegepant, there was a very low incidence of overall elevations of liver function test abnormalities in rimegepant treated patients (1.0% incidence of serum ALT or AST >3x ULN). Subjects will continue to participate in Study 201 with additional data analyses to be submitted in the NDA and required 120-day safety updates.

[5] = pooled 301, 302, 303, n = 1,771

**Q.** With `N[C@@H]1c2cccnc2[C@H](OC(=O)N2CCC(n3c(=O)[nH]c4ncccc43)CC2)CC[C@H]1c1cccc(F)c1F` [Rimegepant, [(55,65,9R)-5-amino-6-(2,3-difluorophenyl)-6,7,8,9-tetrahydro-5H-cyclohepta[b]pyridin-9-yl]4-(2-oxo-3H-imidazo[4,5-b]pyridin-1-yl)piperidine-1-carboxylate] as the compound, how does the “LFTs >3xULN” value [1] read?
**A.** The value was “one patient”.

**Q.** What about the safety and tolerability [1] of the same compound?
**A.** The safety and tolerability was “consistent with the profile previously observed in Study 301”.

**Q.** And the “highest incidence of any single adverse event (AE)” value ([1]; 48 h)?
**A.** The value was at most 1.6%.

**Q.** And the “bilirubin elevations greater than 2 times ULN” value [2]?
**A.** The value was “no bilirubin elevations”.

**Q.** What about the “transaminase level greater than 3 times ULN” value [2] of the same compound?
**A.** The value was “No subject”.

**Q.** What about the “safety and tolerability profile” value ([2]; 75 mg oral tablet) of the same compound?
**A.** Its value is “favorable tolerability and safety”.

**Q.** What about the “Serious AEs (SAEs)” value ([2]; back pain) of the same compound?
**A.** The value was 1 subject.

**Q.** What about the “subjects with > = 20.0% decrease, number” value (patients with migraine; Overall, n 1731) of the same compound?
**A.** The value was 683.

**Q.** What about the “subjects with > = 25.0% decrease, number” value (patients with migraine; Overall, n 1731) of the same compound?
**A.** Its value is 602.

**Q.** And the “subjects with > = 30.0% decrease, number” value (patients with migraine; Overall, n 1731)?
**A.** Its value is 523.

**Q.** What about the “subjects with > = 35.0% decrease, number” value (patients with migraine; Overall, n 1731) of the same compound?
**A.** The value was 442.

**Q.** What about the “subjects with > = 40.0% decrease, number” value (patients with migraine; Overall, n 1731) of the same compound?
**A.** The value was 362.

**Q.** What about the “subjects with > = 45.0% decrease, number” value (patients with migraine; Overall, n 1731) of the same compound?
**A.** The value was 287.

**Q.** What about the “subjects with > = 50.0% decrease, number” value (patients with migraine; Overall, n 1731) of the same compound?
**A.** The value was 226.

**Q.** And the “onset of reductions in the mean number of headache days per month” value (patients with migraine; Study 201)?
**A.** The value was “as early as the first month”.

**Q.** What about the “bilirubin elevations > 2x ULN” value ([3]; across Studies 301, 302 and 303) of the same compound?
**A.** The value was “no patients”.

**Q.** What about the “ALT or AST >5x ULN, number of patients” value ([3]; pooled 301, 302, 303, AST elevation deemed not drug-related) of the same compound?
**A.** Its value is 1.

**Q.** What about the “ALT or AST >3x ULN, number of patients” value [3, 5] of the same compound?
**A.** The value was 2.

**Q.** And the “ALT or AST >3x ULN, percent” value [3, 5]?
**A.** Its value is “(0.1%)”.

**Q.** And the “ALT or AST >5x ULN, percent” value [3, 5]?
**A.** Its value is “(0.06%)”.

**Q.** And the “ALT or AST >10x ULN, number of patients” value [3, 5]?
**A.** Its value is 0.

**Q.** What about the “ALT or AST >20x ULN, number of patients” value [3, 5] of the same compound?
**A.** Its value is 0.

**Q.** And the “ALT or AST >ULN, number of patients” value [3, 5]?
**A.** The value was 48.

**Q.** And the “ALT or AST >ULN, percent” value [3, 5]?
**A.** Its value is “(2.7%)”.

**Q.** What about the “safety and tolerability of long-term dosing” value ([4]; Study 201 interim analysis) of the same compound?
**A.** Its value is “consistent with the profile observed in phase 1- 3 studies”.

**Q.** And the “incidence of serum ALT or AST >3x ULN” value ([4]; Study 201 interim, 75 mg up to once daily)?
**A.** Its value is 1.0%.

**Q.** And the liver safety signal ([4]; Study 201 interim, incl. near-daily dosing (>=15 doses/month))?
**A.** Its liver safety signal is “no liver safety signal detected”.

**Q.** What about the “liver cases assessed as probably related to study drug” value ([4]; Study 201 interim, independent liver panel) of the same compound?
**A.** Its value is “no liver cases”.
